According to article PMC10914731, “Homo-BacPROTAC-induced degradation of ClpC1 as a strategy against drug-resistant mycobacteria” (Nature Communications, 2024):
≈ marks a conversion by molar mass, not a printed value. Where “and” joins values, the source holds several entries; their conditions need not be identical. Identical values can stand only once. Like-named read-outs stand apart in the source and are kept apart here. *1 amine or outer side, *2 acyl side, *3 side chain or, on linkers, in order; H or OH if unused. Where a SMILES comes first, the peptide text is derived from it. [ ]: non-standard residue; d: D form. X3 = C#CCOc1ccc([C@@H](OC)[C@H](N[*:1])C(=O)[*:2])cc1; X2 = C#CCn1cc(C[C@@H](C(=O)[*:2])N(C)[*:1])c2ccccc21; X4 = C=CCO[C@H](c1ccccc1)[C@H](N[*:1])C(=O)[*:2]; NMeLeu(5-OH,4R) = CN[C@@H](C[C@@H](C)CO)C(=O)O; Phe(βR-OMe) = CO[C@H](c1ccccc1)[C@H](N)C(=O)O; Trp(1-Me) = Cn1cc(C[C@H](N)C(=O)O)c2ccccc21; NMeL = CN[C@@H](CC(C)C)C(=O)O

Legend:
[1] = target: ClpC1 NTD protein (M. tuberculosis) (Mycobacterium tuberculosis, UniProt P9WPC9); experiment: biochemical; format: binding
Sequence of ClpC1 NTD protein (M. tuberculosis) (P9WPC9 1-156, looked up, natural form): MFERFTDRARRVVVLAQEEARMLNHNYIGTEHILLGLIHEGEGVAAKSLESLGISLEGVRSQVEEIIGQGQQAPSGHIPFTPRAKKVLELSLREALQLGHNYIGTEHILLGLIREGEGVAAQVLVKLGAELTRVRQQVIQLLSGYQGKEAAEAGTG

[2] = in vitro; settings: human; for efflux ratio: Caco-2
Outline: (§1)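 Permeability across Caco-2 monolayers was measured in both directions, apical-to-basolateral and basolateral-to-apical, in 10^-6 cm s-1. Efflux ratio = P(B−A)/P(A−B). Intrinsic permeability is the mean of P(A−B) and P(B−A).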

[3] = system: Caco-2 monolayers; experiment: in vitro; settings: human, Caco-2
Outline: as §1

[4] = format: in vitro ADME, Mice; settings: for Microsomal Stability Mice: clearance in microsomes
Description: (§2) The kinetics of compound degradation in liver microsomes is assessed in an assay with 1 µmol/l of compound and 0.5 mg/ml liver microsomes in a medium of 100 mM Tris-HCl pH 7.5, 6.5 mM MgCl2 and 1 mM NADPH at 37 °C. The reaction is stopped at multiple time points by adding acetonitrile. After centrifugation, the compound concentration is measured in the supernatants by high-performance liquid chromatography (HPLC) tandem mass spectrometry (MS/MS). The results are fitted to a first-order decay and the half-lives are converted to clearance (stated as % of the liver blood flow (%Qh)) using the well-stirred liver model.

[5] = format: in vitro ADME, Rat; settings: for Microsomal Stability Rat: clearance in microsomes
Description: as §2

[6] = Microsomal stability, human; format: in vitro ADME; settings: for Microsomal Stability Human: clearance in microsomes
Description: as §2

[7] = Hepatocyte stability, mice; format: in vitro ADME; settings: mouse, pH 7.4
Outline: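 Clearance expressed as % of liver blood flow (% Qh), derived from half-life via the well-stirred liver model. Compound at 1 µM final was incubated up to 6 h with ~1 million cells/mL hepatocytes in 50% serum buffer, 37 °C, pH 7.4.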

[8] = format: in vitro ADME, Rat; settings: rat, pH 7.4
[9] = format: in vitro ADME, Human; settings: human, pH 7.4
[10] = system: M. tuberculosis H37Rv (ATCC 27294); experiment: microbe, parasite or virus in culture; format: cell-based
[11] = system: Msm 607; experiment: microbe, parasite or virus in culture; format: cell-based
[12] = system: Msm 700084; experiment: microbe, parasite or virus in culture; format: cell-based
[13] = SPR (Supplementary Table 1), read-out: KD ClpC1-NTD Mean ± SD
[14] = SPR, single independent measurements, read-out: KD ClpC1-NTD
[15] = Mycobacterium tuberculosis, Mtb H37Rv (Supplementary Table 2), read-out: MIC Mtb
[16] = Mycobacterium tuberculosis, single determinations, read-out: Mtb MIC
[17] = Mycolicibacterium smegmatis, 607, read-out: MIC Msm 607
[18] = Mycolicibacterium smegmatis, 607, read-out: Msm 607 MIC, single determinations
[19] = Mycolicibacterium smegmatis, 700084, single determinations, read-out: Msm 700084 MIC
[20] = Mycolicibacterium smegmatis, 700084, read-out: MIC Msm 700084
[21] = SPR dissociation rate constant, read-out: koff ClpC1-NTD Mean ± SD
[22] = SPR, individual measurements (source data), read-out: KD ClpC1-NTD
[23] = SPR, single independent measurements
[24] = SPR, single independent measurements, read-out: koff ClpC1-NTD
[25] = SPR, read-out: ClpC1-NTD KD Mean ± SD
[26] = Mycobacterium tuberculosis, M. tuberculosis H37Rv strain, read-out: MIC Mtb H37Rv Mean ± SD
[27] = Mycobacterium tuberculosis, individual measurements (source data), read-out: Mtb MIC
[28] = Caco-2, Caco-2 permeability P (A-B)
[29] = Caco-2, Caco-2 permeability P (B-A)

| Structure (SMILES) | efflux ratio [2] | Caco-2 Int. Perm [3] | Microsomal Stability Mouse QH [4] | Microsomal Stability Mice [4] [%Qh] | Microsomal Stability Rat QH [5] | Microsomal Stability Rat [5] [%Qh] | Microsomal Stability Human QH [6] | Microsomal Stability Human [6] [%Qh] | Hepatocyte Mice [7] [%Qh] | Hepatocyte Stability Mouse QH [7] [%] | Hepatocyte Rat [8] [%Qh] | Hepatocyte Stability Rat QH [8] [%] | Hepatocyte Human [9] [%Qh] | Hepatocyte Stability Human QH [9] [%] | MIC [10, 15] [µM] | MIC [10, 16] [µM] | MIC [11, 17] [µM] | MIC [11, 18] [µM] | MIC [12, 19] [µM] | MIC [12, 20] [µM] | other results |
| --- | --- | --- | --- | --- | --- | --- | --- | --- | --- | --- | --- | --- | --- | --- | --- | --- | --- | --- | --- | --- | --- |
| C=CCO[C@H](c1ccccc1)[C@@H]1NC(=O)[C@H](C)NC(=O)[C@H](C[C@@H](C)CO)N(C)C(=O)[C@H](Cc2cn(C)c3ccccc23)NC(=O)[C@H](C(C)C)NC(=O)[C@H](CC(C)C)N(C)C(=O)[C@H](C(C)C)NC1=O [Compound 14] (cyclo(A[X4]V[NMeL]V[Trp(1-Me)][NMeLeu(5-OH,4R)])) | 12.1 | 21.7 | >88.4 >88.4% | > 88 | 84.3% and 84% | 84 | >88.4 >88.4% | > 88 | 29 | 28.905 | 57 | 56.626 | 41 | 41.006 | 3.1 (≈ 2.92 µg/mL) | 3.12 (≈ 2.95 µg/mL) | 1.6 (≈ 1.51 µg/mL) | 1.56 (≈ 1.47 µg/mL) | 12.5 (≈ 11.8 µg/mL) | 12.5 (≈ 11.8 µg/mL) | Kd [1, 13]: 10 ± 1 nM; Kd [1, 14]: 9.31 nM and 10.7 nM; Papp B→A ([2]; Caco-2, CACO permeability PEBA): 30 ×10⁻⁶ cm/s |
| C#CCn1cc(C[C@H]2C(=O)N(C)[C@@H](C[C@@H](C)CO)C(=O)N[C@@H](C)C(=O)N[C@@H]([C@H](OC)c3ccccc3)C(=O)N[C@@H](C(C)C)C(=O)N(C)[C@@H](CC(C)C)C(=O)N[C@@H](C(C)C)C(=O)N2C)c2ccccc21 [Compound 26] (cyclo(A[Phe(βR-OMe)]V[NMeL]V[X2][NMeLeu(5-OH,4R)])) | 2.2 | 24.0 | >88.400% | > 88 | >87.900% | > 88 | >88.400% | > 88 | 67 | 66.557 | 68 | 67.861 | – | 43.919 | 6.3 (≈ 6.02 µg/mL) | 6.25 (≈ 5.97 µg/mL) | 6.3 (≈ 6.02 µg/mL) | 6.25 (≈ 5.97 µg/mL) | 12.5 (≈ 11.9 µg/mL) | 12.5 (≈ 11.9 µg/mL) | koff [1, 21]: 0.04 s⁻¹; Kd [1, 22]: 17 nM and 12.3 nM; koff ClpC1-NTD [1, 23]: 4E-2 4E-2 1/s; koff [1, 24]: 0.04 s⁻¹; Kd [1, 25]: 15 ± 3 nM; Papp A→B ([2]; Caco-2, CACO permeability PEAB): 25 ×10⁻⁶ cm/s; Papp B→A ([2]; Caco-2, CACO permeability PEBA): 49 ×10⁻⁶ cm/s; Influence of N-methylation on permeability [3]: 9.3; Permeability Correlation P (A-B) [3]: 13.6; Permeability Correlation Ratio [3]: 9.3; MIC [10, 26]: 6.3 µM (≈ 6.02 µg/mL); MIC [10, 27]: 6.25 µM (≈ 5.97 µg/mL) |
| CO[C@H](c1ccccc1)[C@@H]1NC(=O)[C@H](C)NC(=O)[C@H](C[C@@H](C)CO)N(C)C(=O)[C@H](Cc2cn(C)c3ccccc23)NC(=O)[C@H](CCC(=O)N(C)C)NC(=O)[C@H](CC(C)C)N(C)C(=O)[C@H](C(C)C)NC1=O [SI-74] (cyclo(A[Phe(βR-OMe)]V[NMeL]E(NMe2)[Trp(1-Me)][NMeLeu(5-OH,4R)])) | > 6 | 1.7 | 83.700% | 84 | 60.700% | 85 | 85.000% | 61 | 38 | 37.632 | 49 | 48.537 | 12 | 12.386 | 3.1 (≈ 3.02 µg/mL) | 3.12 (≈ 3.04 µg/mL) | 0.8 (≈ 0.779 µg/mL) | 0.78 (≈ 0.76 µg/mL) | 6.25 (≈ 6.09 µg/mL) | 9.4 ± 4.4 (≈ 9.16 µg/mL) | Kd [1, 13]: 4 ± 2 nM; Kd [1, 14]: 3.28 nM and 5.58 nM; Papp A→B ([2]; Caco-2, CACO permeability PEAB): < 0.46 ×10⁻⁶ cm/s; Papp B→A ([2]; Caco-2, CACO permeability PEBA): 3.4 ×10⁻⁶ cm/s; Papp A→B [2, 28]: < 0.5 ×10⁻⁶ cm/s; MIC ([12]; single determinations, read-out: Msm 700084 MIC): 12.500 µM (≈ 12.2 µg/mL) |
| C#CCOc1ccc([C@@H](OC)[C@@H]2NC(=O)[C@H](C)NC(=O)[C@H](C[C@@H](C)CO)N(C)C(=O)[C@H](Cc3cn(C)c4ccccc34)NC(=O)[C@H](C(C)C)NC(=O)[C@H](CC(C)C)N(C)C(=O)[C@H](C(C)C)NC2=O)cc1 [SI-38] (cyclo(A[X3]V[NMeL]V[Trp(1-Me)][NMeLeu(5-OH,4R)])) | – | 9.1 | 72.800% | 73 | 58.700% | 59 | 83.600% | 84 | 15 | 15.001 | 37 | 37.130 | 19 | 19.299 | 1.6 (≈ 1.55 µg/mL) | 1.56 (≈ 1.52 µg/mL) | 25 (≈ 24.3 µg/mL) | 25 (≈ 24.3 µg/mL) | 12.5 (≈ 12.1 µg/mL) | 12.5 (≈ 12.1 µg/mL) | Kd [1, 13]: 5.6 ± 0.6 nM; koff ClpC1-NTD [1, 23]: 0.04 s⁻¹; Kd [1, 14]: 6 nM and 5.19 nM; koff [1, 24]: 0.06 s⁻¹; Papp B→A ([2]; Caco-2, CACO permeability PEBA): 18 ×10⁻⁶ cm/s; Papp A→B [2, 28]: < 0.2 ×10⁻⁶ cm/s; Papp B→A [2, 29]: 18 ×10⁻⁶ cm/s |
| CCCCCn1cc(C[C@@H]2NC(=O)[C@H](CC(C)C)N(C)C(=O)[C@H](C(C)C)NC(=O)[C@H]([C@H](OC)c3ccccc3)NC(=O)[C@H](C)NC(=O)[C@H](C[C@@H](C)CO)N(C)C(=O)[C@H](Cc3cn(C)c4ccccc34)N(C)C2=O)nn1 [Compound 25] | 25.1 | 11.4 | 79.2% and 83.9% | 82 | 62% and 62.6% | 62 | >88.4 >88.4% | > 88 | 21 | 27.872 | 16 | – | 30 | – | 6.3 (≈ 6.55 µg/mL) | 6.25 (≈ 6.5 µg/mL) | 12.5 (≈ 13 µg/mL) | 12.5 (≈ 13 µg/mL) | 12.5 (≈ 13 µg/mL) | 12.5 (≈ 13 µg/mL) | koff [1, 21]: 0.1 s⁻¹; Kd [1, 22]: 26.2 nM and 26 nM; koff ClpC1-NTD [1, 23]: 1E-1 1E-1 1/s; koff [1, 24]: 0.1 s⁻¹; Kd [1, 25]: 26.1 ± 0.1 nM; Papp A→B ([2]; Caco-2, CACO permeability PEAB): 0.87 ×10⁻⁶ cm/s; Papp A→B [2, 28]: 0.9 ×10⁻⁶ cm/s; Papp B→A [2, 29]: 22 ×10⁻⁶ cm/s; Permeability Correlation P (A-B) [3]: > 3; Permeability Correlation Ratio [3]: > 1.5; MIC [10, 26]: 6.3 µM (≈ 6.55 µg/mL); MIC [10, 27]: 6.25 µM (≈ 6.5 µg/mL) |
| COC(c1ccccc1)C1NC(=O)C(C)NC(=O)C(CC(C)CO)N(C)C(=O)C(Cc2cn(CC=CCn3cc(CC4NC(=O)C(C(C)C)NC(=O)C(CC(C)C)N(C)C(=O)C(C(C)C)NC(=O)C(C(OC)c5ccccc5)NC(=O)C(C)NC(=O)C(CC(C)CO)N(C)C4=O)c4ccccc43)c3ccccc23)NC(=O)C(C(C)C)NC(=O)C(CC(C)C)N(C)C(=O)C(C(C)C)NC1=O (stereo not shown) [Compound 15] | – | 2.0 | <24.200% | < 24 | <23.100% | < 23 | <24.400% | < 24 | 15 | 15.001 | 6 | 6.192 | 12 | 12.386 | 0.2 ± 0.1 (≈ 0.372 µg/mL) | – | 2.3 ± 0.9 (≈ 4.27 µg/mL) | – | 50 (≈ 92.9 µg/mL) | 50 (≈ 92.9 µg/mL) | Kd [1, 22]: 1.81 nM and 0.654 nM; Kd [1, 25]: 1.2 ± 0.8 nM; Caco-2 Efflux ratio [3]: 0.8; Caco-2 permeability P (A-B) [3]: 2.2; Caco-2 permeability P (B-A) [3]: 1.8; MIC [10, 26]: 0.2 ± 0.1 µM (≈ 0.372 µg/mL); MIC ([10]; individual measurements (source data), read-out: Mtb MIC): 0.200 µM and 0.390 µM and 0.097 µM (2×) |
